{
  "source": "patent US10858369B2",
  "about": "“Pseudopolymorphic forms of a HIV protease inhibitor” (Janssen Sciences Ireland Unlimited Company, priority 2002, dated 2020)",
  "key": {"[1]": {"test": "Adsorption-Desorption tests (vapor sorption, weight change with respect to atmospheric humidity, 25° C.)", "assay_type": "physicochemical", "protocol": "drying temperature: 40° C.\nequilibrium: ≤0.05% in 5 min. or 60 min.\ndata interval: 0.05% or 2 min.\nAt the drying step about 0.6% weight loss was registered.\nAbout 21 mg of Form K were transferred into a VTI vapor sorption analyzer model SGA100 and the weight change with respect to the atmospheric humidity was recorded at the following conditions:\ndrying temperature: 30° C.\ndata interval: 0.05% or 2.0 min.\nForm K is hygroscopic. […] Form K adsorbed up to 1.5% water at high relative humidity.\nA different study of the adsorption and desorption of water by Form K at 25° C. at different conditions of relative humidity was investigated on an amount of about 18 mg of the mesylate solvate. The weight change as a function of relative humidity was registered."}, "[2]": {"test": "Adsorption-Desorption Hydratation Tests", "assay_type": "physicochemical", "details": "25° C., RH cycle repeated 11 times", "protocol": "equilibrium: ≤0.0005% in 5 min. or 90 min.\ndata interval: 0.05% or 2 min\ncycle RH (%) adsorption/desorption: 5.95 repeat the cycle 11 times\nAt the end of this test a loss of weight of 5.2% was registered. […] The ADS/DES hydratation test curves are collected in FIG. 19."}, "[3]": {"test": "Approximate solubility in different solvents at approximate 23° C.", "assay_type": "physicochemical", "details": "thermodynamic from solid"}, "[4]": {"test": "Solubility in function of HPβCD (hydroxpropyl-β-cyclodextrin)", "assay_type": "physicochemical", "details": "2 days at 20° C.", "protocol": "An excess of product was equilibrated with the solvent during 2 days at 20° C. After removing the undissolved compound, the concentration in solution was determined using UV spectrometry."}, "[5]": {"test": "Randomized, placebo-controlled, double-blind, multiple dose escalation trial: safety, tolerability and pharmacokinetics after oral administration"}, "[6]": {"test": "Thermogravimetry of Form A, before and after Adsorption/Desorption tests, and at 25° C. under dry nitrogen", "assay_type": "physicochemical", "protocol": "The TG curve was recorded on a TA Instrument Hi-Res TGA 2950 thermogravimeter at the following conditions:\ninitial temperature: room temperature\nfinal condition: 300° C. or <80[(w/w) %]\nThe loss of weight at temperatures up to 80° C. is mainly due to the evaporation of solvent (water) present in the sample. The loss of weight at temperatures above 80° C. is mainly due to the evaporation of solvent (ethanolate) present in the sample.\nThe loss of weight at 25° C. after 10 hours was around 0.6%. This was due to the evaporation of solvent."}, "[7]": {"test": "Aqueous solubility in solvents with different pH (excess solute equilibrated at 20° C., UV spectrometry)", "assay_type": "physicochemical", "details": "at least 24 hours", "protocol": "Further solubility investigations were performed in function of pH. […] An excess of the solute was equilibrated with the solvent at 20° C. for at least 24 hours. After removing the undissolved compound, the concentration in solution was determined using UV spectrometry.\nAqueous solubilities of Form B were measured in solvents with different pH. An excess of the solute was equilibrated with the solvent at 20° C. for at least 24 hours. After removing the undissolved compound, the concentration in solution was determined using UV spectrometry.\nAqueous solubilities of Form K were measured in solvents with different pH. An excess of the solute was equilibrated with the solvent at 20° C. for at least 48 hours. After removing the undissolved compound, the concentration in solution was determined using UV spectrometry."}},
  "data": [
    {"molecule": "CC(C)CN(C[C@@H](O)[C@H](Cc1ccccc1)NC(=O)O[C@H]1CO[C@H]2OCC[C@H]21)S(=O)(=O)c1ccc(N)cc1", "note": "[Form A, (3R,3aS,6aR)-hexahydrofuro [2,3-b] furan-3-yl (1S,2R)-3-[[(4-aminophenyl)sulfonyl] (isobutyl)amino]-1-benzyl-2-hydroxypropylcarbamate]", "values": [
      {"measurement": "hygroscopicity", "setting": "[1]; 25° C.", "result": "not hygroscopic"},
      {"measurement": "loss of weight during the desorption cycle", "setting": "[1]; 25° C.", "result": 1.4, "unit": "%"},
      {"measurement": "obtained product after ADS/DES", "setting": "[1]; 25° C.", "result": "mixture of ethanolate form and hydrated form"},
      {"measurement": "weight loss at the drying step", "setting": "[1]; initial drying step (drying temperature 40° C. Form A, 30° C. Form K)", "result": "about 0.6%"},
      {"measurement": "form after the hydratation test", "setting": "[2]", "result": "transferred into a hydrated form"},
      {"measurement": "loss of weight at the end of the test", "setting": "[2]", "result": 5.2, "unit": "%"},
      {"measurement": "solubility", "setting": "[3]; organic solvent or mixture, 1-Methoxy-2-propanol", "result": "160000 to 213000", "unit": "µg/mL"},
      {"measurement": "solubility", "setting": "[3]; organic solvent or mixture, 2-Propanol", "result": "< 3400", "unit": "µg/mL"},
      {"measurement": "solubility", "setting": "[3]; organic solvent or mixture, Acetone", "result": "106000 to 211000", "unit": "µg/mL"},
      {"measurement": "solubility", "setting": "[3]; organic solvent or mixture, Dichloromethane", "result": "105000 to 209000", "unit": "µg/mL"},
      {"measurement": "solubility", "setting": "[3]; organic solvent or mixture, Ethanol absolute", "result": "< 3400", "unit": "µg/mL"},
      {"measurement": "solubility", "setting": "[3]; organic solvent or mixture, Ethylacetate", "result": "71000 to 107000", "unit": "µg/mL"},
      {"measurement": "solubility", "setting": "[3]; organic solvent or mixture, Ethylmethylketone", "result": "102000 to 204000", "unit": "µg/mL"},
      {"measurement": "solubility", "setting": "[3]; organic solvent or mixture, Heptane", "result": "< 3400", "unit": "µg/mL"},
      {"measurement": "solubility", "setting": "[3]; organic solvent or mixture, Isopropylether", "result": "< 3400", "unit": "µg/mL"},
      {"measurement": "solubility", "setting": "[3]; organic solvent or mixture, Methacyanate", "result": "> 200000", "unit": "µg/mL"},
      {"measurement": "solubility", "setting": "[3]; organic solvent or mixture, Methanol", "result": "< 3400", "unit": "µg/mL"},
      {"measurement": "solubility", "setting": "[3]; organic solvent or mixture, Tetrahydrofurane", "result": "102000 to 203000", "unit": "µg/mL"},
      {"measurement": "solubility", "setting": "[3]; organic solvent or mixture, Toluene", "result": "< 3500", "unit": "µg/mL"},
      {"measurement": "solubility", "setting": "[3]; water", "result": "< 3500", "unit": "µg/mL"},
      {"measurement": "solubility", "setting": "[4]; 5% HPβCD in water (pH = 5.8)", "result": "2.4 (pH = 5.8) mg/ml solution"},
      {"measurement": "solubility", "setting": "[4]; 10% HPβCD in water (pH = 6.0)", "result": "6.5 (pH = 6.0) mg/ml solution"},
      {"measurement": "solubility", "setting": "[4]; 20% HPβCD in water (pH = 6.0)", "result": "17 (pH = 6.0) mg/ml solution"},
      {"measurement": "solubility", "setting": "[4]; 40% HPβCD in water (pH = 5.9)", "result": "40 (pH = 5.9) mg/ml solution"},
      {"measurement": "solubility", "setting": "[4]; Water (pH = 5.9)", "result": "0.16 (pH = 5.9) mg/ml solution"},
      {"measurement": "unchanged Form A excreted in the urine", "setting": "[5]; all dose levels", "result": "Less than 2%"},
      {"measurement": "time to reach steady-state plasma concentrations", "setting": "[5]; oral, repeated dosing b.i.d. or t.i.d., healthy subjects", "result": "≤ 3", "unit": "days"},
      {"measurement": "dose-proportionality of Cmax (maximum conc.)", "setting": "[5]; with respect to dose per intake", "result": "dose-proportional"},
      {"measurement": "loss of weight (TG)", "setting": "[6]; 25° C. under dry nitrogen atmosphere, after 10 hours", "result": "around 0.6%"},
      {"measurement": "TG (% weight change) >80° C.", "setting": "[6]; Form A as such", "result": 7.1, "unit": "%"},
      {"measurement": "TG (% weight change) Up to 80° C.", "setting": "[6]; Form A as such", "result": 0.3, "unit": "%"},
      {"measurement": "TG (% weight change) >80° C.", "setting": "[6]; after A/D hydratation test", "result": 0.5, "unit": "%"},
      {"measurement": "TG (% weight change) Up to 80° C.", "setting": "[6]; after A/D hydratation test", "result": 5.4, "unit": "%"},
      {"measurement": "TG (% weight change) >80° C.", "setting": "[6]; after ADS/DES", "result": 4.0, "unit": "%"},
      {"measurement": "TG (% weight change) Up to 80° C.", "setting": "[6]; after ADS/DES", "result": 2.9, "unit": "%"},
      {"measurement": "solubility", "setting": "[7]; Water (pH 5.9)", "result": "16 (pH 5.9) mg/100 ml solution"},
      {"measurement": "solubility thermodynamic", "setting": "[7]; pH 0.2, aqueous buffer, 1.0N HCl (pH 0.2)", "result": 6200, "unit": "µg/mL"},
      {"measurement": "solubility thermodynamic", "setting": "[7]; pH 1.1, aqueous buffer, 0.1N HCl (pH 1.1)", "result": 830, "unit": "µg/mL"},
      {"measurement": "solubility thermodynamic", "setting": "[7]; pH 2, aqueous buffer, Buffer pH 2 (citrate/HCl) (pH 2.0)", "result": 180, "unit": "µg/mL"},
      {"measurement": "solubility thermodynamic", "setting": "[7]; pH 2.1, aqueous buffer, 0.01N HCl (pH 2.1)", "result": 180, "unit": "µg/mL"},
      {"measurement": "solubility thermodynamic", "setting": "[7]; pH 3, aqueous buffer, Buffer pH 3 (citrate/HCl) (pH 3.0)", "result": 100, "unit": "µg/mL"},
      {"measurement": "solubility thermodynamic", "setting": "[7]; pH 4, aqueous buffer, Buffer pH 4 (citrate/HCl) (pH 4.0)", "result": 90, "unit": "µg/mL"}
    ]}
  ]
}
